The text below walks through data of US10493087B2, “Sialylation-increasing therapies for diseases associated with oxidative stress” (THE UNITED STATES OF AMERICA, AS REPRESENTED BY THE …, priority 2015, dated 2019).

The test system of assay [1] is Gne−/−hGNED176V-Tg mice. Nature of the assay: Fiber diameter analysis of gastrocnemius muscles. It is filed as in vivo. The settings on record: for Mean fiber diameter: gastrocnemius. As to the method: N-Acetylcysteine (NAC) Treatment Protocols: […] were randomly divided into high dose NAC (n=13), low dose NAC (n=13), or untreated control (n=17) groups. […] There was no difference in water consumption between mice receiving NAC supplemented water or regular drinking water. […] Three littermates groups (high dose NAC; n=7, low dose NAC; n=7, or untreated control; n=6) were treated in the same way. Fiber diameter analysis: Muscle tissues were processed according to previous protocols (8-10). For the morphometric analysis, we stained frozen transverse sections (6 μm) of gastrocnemius muscles with rabbit polyclonal antibody to caveolin 3 (BD Transduction Laboratories), followed by Alexa fluor-conjugated goat IgG antibody to rabbit (Invitrogen). Five randomly selected images per mouse were used to measure fiber diameters using ImageJ software (NIH). Minimal inner diameters of 1,000 myofibers from each mouse were measured.

In assay [2] the test system is GNE Myopathy muscle. Nature of the assay: Gene expression analysis of muscle (quantitative RT-PCR and microarray). It is filed as in vivo, mice. Here is the method: Quantitative RT-PCR and microarray analysis: […] Microarray experiments were carried out using a […] Mouse Whole Genome Bioarray (Applied Microarrays Inc.) at Filgen Inc. The arrays were scanned using a […] Array Scanner (Molecular Devices Inc.). The data were analyzed by using Microarray Data Analysis Tool version 3.2 (Filgen Inc.). For quantitative PCR, TAQMAN® probes were used in combination with the TAQMAN® Gene Expression Master Mix (Applied Biosystems) in a total reaction of 20 μl. STEPONEPLUSTM Real-Time PCR System (Applied Biosystems) was used to quantify mRNA expression. mRNA relative expression was normalized to internal control (GAPDH) and determined as fold change in the average expression value of littermate muscles. The TAQMAN® probes used were as follows: F-box protein 32 (Fbxo32), Mm00499523_m1; tripartite motif-containing 63 (Trim63), Mm01185221_m1; Sulfiredoxin1 homolog (Srxn1), Mm00769566_m1; metallothionein 1 (Mt1), Mm00496660_g1; metallothionein 2 (Mt2), Mm00809556_s1; metallothionein 3 (Mt3), Mm00496661_g1; LC3b, Mm00782868_sH. N-Acetylcysteine (NAC) Treatment Protocols: […] were randomly divided into high dose NAC (n=13), low dose NAC (n=13), or untreated control (n=17) groups. […] There was no difference in water consumption between mice receiving NAC supplemented water or regular drinking water. […] Three littermates groups (high dose NAC; n=7, low dose NAC; n=7, or untreated control; n=6) were treated in the same way.

Where [3] appears, read: HD and LD treated GNE Myopathy muscles.

In turn, `CC(=O)N[C@@H](CS)C(=O)O` [NAC, N-acetylcysteine] displayed a Mean fiber diameter in assay [1] (HD group 1.5 g/kg per day, p<0.05 vs untreated 31.7±0.8) of 35.2±1.2 μm. The same molecule gave a Mean fiber diameter in assay [1] (LD group 0.15 g/kg per day, p<0.01 vs untreated 31.7±0.8) of 35.7±0.8 μm. The “Average fiber diameters in healthy control mice” value in assay [1] (some healthy control (littermate) mice with NAC supplement) is recorded as “increased”. Also, in assay [2] (setting [3]), the “Upregulation of atrogenes (atrogin-1 and MuRF1)” value was “recovered”; the “Upregulation of oxidative stress responsive genes (MT1 and MT2)” value is reported as “recovered”. Also, in assay [2] (treated GNE Myopathy muscles, RT-PCR and microarray), the “LC3b expression (marker of autophagy)” value is recorded as “recovered as well”.
